Source: PMC9379334, “Determination of ceftriaxone in human plasma using liquid chromatography–tandem mass spectrometry” (Wellcome Open Research, 2022)
Like-named read-outs stand apart in the source and are kept apart here.

Assays:
[1] = cited from earlier work
[2] = Stability of extracted samples in the LC autosampler at 10°C; assay type: physicochemical, human
[3] = cited from earlier work; remark: listed apart in the source
[4] = Stability of ceftriaxone in spiked human plasma under different storage conditions (LC-MS/MS); assay type: physicochemical; details: for Stability, Precipitated 4hrs in RT: protein precipitated; for Stability in plasma, F/T cycle 5 / Stability in plasma, F/T cycle 3: freeze -80°C/thaw RT; for Stability in plasma, RT 24 hrs / Stability in plasma, RT 48 hrs: RT about 23°C
Procedure: (§1) Stock solution 10 mg/ml was evaluated at -80°C and at +4°C for 5 days, and in room temperature (+24°C) for 8 hrs. The lowest concentration of working solution 50 µg/ml was also evaluated at -80°C for 5 days and at room temperature (24°C) for 5 hrs. Spiked plasma stored at ambient temperature and at 4°C for 48 h was used to evaluate short-term stability. Long-term stability of spiked samples at -80°C was evaluated after 7 months. Freeze-thaw stability was evaluated for plasma samples and haemolysed plasma samples for five cycles. The samples were stored at -80°C for 24 h followed by unassisted thawing at room temperature for 2–3 h and subsequent re-freezing at -80°C. The stability of precipitated samples stored at ambient temperature (about 23°C) for 4 h was also evaluated. The stability of extracted samples in the LC autosampler kept at 10°C was evaluated by re-injecting the calibrators and QC samples 65 h after initial injection. The acceptance criteria for stability was achieved when the RSD of stability samples was below ±15%, and the accuracy of mean concentrations was within ±15% of nominal concentration.
(§2) The stability samples were quantified using a calibration curve in CPD plasma. Stability samples in CPD plasma were compared to the average measured concentration of CPD QC samples added in the same run. The CPD calibration curve was also used to quantify heparin and EDTA stability samples due to limited supply of volunteer donor blood. However, since EDTA and heparin have different recovery from plasma compared to CPD, a direct comparison would be biased. Thus, stability samples were instead compared with the average measured concentration of the precision and accuracy of each anticoagulant.

[5] = Stability of ceftriaxone stock and working solutions; details: for Stock solution stability: stock solution 10 mg/ml in water; for Working solution stability: weakest working solution 50 µg/ml
Procedure: as §1, §2

[6] = Stability of ceftriaxone in acidic (pH about 2) and neutral pH dilutions; details: +4°C
[7] = QC1, 2.97 µg/ml, CPD haemolysis plasma
[8] = QC1, 2.97 µg/ml, CPD plasma, vs average measured CPD QC concentration in same run
[9] = QC1, 2.97 µg/ml, EDTA plasma, vs average of four precision and accuracy batches
[10] = QC1, 2.97 µg/ml, EDTA plasma, vs average of four precision and accuracy batches for this anticoagulant
[11] = QC1, 2.97 µg/ml, Li-heparin plasma, vs average of four precision and accuracy batches
[12] = QC1, 2.97 µg/ml, Na-heparin haemolysis plasma
[13] = QC1, 2.97 µg/ml, Na-heparin plasma, vs average of four precision and accuracy batches
[14] = QC3, 155 µg/ml, CPD haemolysis plasma
[15] = QC3, 155 µg/ml, CPD plasma, vs average measured CPD QC concentration in same run
[16] = QC3, 155 µg/ml, EDTA plasma, vs average of four precision and accuracy batches
[17] = QC3, 155 µg/ml, Li-heparin plasma, vs average of four precision and accuracy batches
[18] = QC3, 155 µg/ml, Na-heparin haemolysis plasma
[19] = QC3, 155 µg/ml, Na-heparin plasma, vs average of four precision and accuracy batches

CO/N=C(\C(=O)N[C@@H]1C(=O)N2C(C(=O)O)=C(CSc3nc(=O)c(=O)[nH]n3C)CS[C@H]12)c1csc(N)n1 [ceftriaxone]
Degradation ([1]; acid hydrolysis with 0.1 M hydrochloric acid, 30 minutes, ref Shrestha et al. 24): 19.6% | LC-stability ([1]; post-extraction dilution of samples using 0.5% formic acid in water, ref Herrera-Hidalgo et al. 31): 4 h | Variation in QC concentrations ([2]; extracted samples in LC autosampler 10°C up to 65 h, full set of calibrators and QC re-injected): less than 10% | Loss, original injection vs 65-h injection ([2]; extracted samples in LC autosampler 10°C, 65 h): about 20% | Mean plasma concentration 24 h after administration ([3]; 0.5-g intravenous dose): 5300 ng/mL | Mean plasma concentration 24 h after administration ([3]; 1-g intravenous dose): 9300 ng/mL | Mean plasma concentration 24 h after administration ([3]; 2-g intravenous dose): 15100 ng/mL | Population mean peak levels ([3]; standard 2-g daily dose, critically ill patients with sepsis): below 200 μg/ml | Stability, Precipitated 4hrs in RT [4, 7]: 99.3% | Stability in plasma, F/T cycle 5 [4, 7]: 88.4% | Stability, Precipitated 4hrs in RT [4, 8]: 94.2% | Stability in plasma, RT 24 hrs [4, 8]: 106% | Stability in plasma, RT 48 hrs [4, 8]: 100% | Stability in plasma, F/T cycle 3 [4, 8]: 97.7% | Stability in plasma, F/T cycle 5 [4, 8]: 94.0% | Stability in plasma, 4°C 24 hrs [4, 8]: 102% | Stability in plasma, 4°C 48 hrs [4, 8]: 103% | Stability in plasma, -80°C 224 days [4, 8]: 103% | Stability, Precipitated 4hrs in RT [4, 9]: 98.0% | Stability in plasma, RT 24 hrs [4, 10]: 105% | Stability in plasma, F/T cycle 3 [4, 9]: 103% | Stability in plasma, F/T cycle 5 [4, 9]: 103% | Stability in plasma, -80°C 224 days [4, 9]: 95.5% | Stability in plasma, 4°C 24 hrs [4, 10]: 113% | Stability, Precipitated 4hrs in RT [4, 11]: 103% | Stability in plasma, RT 24 hrs ([4]; QC1, 2.97 µg/ml, Li-heparin plasma, vs average of four precision and accuracy batches for this anticoagulant): 105% | Stability in plasma, F/T cycle 3 [4, 11]: 95.7% | Stability in plasma, F/T cycle 5 [4, 11]: 99.5% | Stability in plasma, 4°C 24 hrs [4, 11]: 98.3% | Stability in plasma, -80°C 224 days [4, 11]: 96.0% | Stability, Precipitated 4hrs in RT [4, 12]: 91.9% | Stability in plasma, F/T cycle 3 [4, 12]: 91.3% | Stability in plasma, F/T cycle 5 [4, 12]: 97.6% | Stability, Precipitated 4hrs in RT [4, 13]: 96.8% | Stability in plasma, RT 24 hrs ([4]; QC1, 2.97 µg/ml, Na-heparin plasma, vs average of four precision and accuracy batches for this anticoagulant): 103% | Stability in plasma, F/T cycle 3 [4, 13]: 100% | Stability in plasma, F/T cycle 5 [4, 13]: 98.7% | Stability in plasma, 4°C 24 hrs [4, 13]: 109% | Stability in plasma, -80°C 224 days [4, 13]: 93.7% | Stability, Precipitated 4hrs in RT [4, 14]: 94.3% | Stability in plasma, F/T cycle 5 [4, 14]: 98.6% | Stability, Precipitated 4hrs in RT [4, 15]: 101% | Stability in plasma, RT 24 hrs [4, 15]: 99.8% | Stability in plasma, RT 48 hrs [4, 15]: 99.6% | Stability in plasma, F/T cycle 3 [4, 15]: 99.1% | Stability in plasma, F/T cycle 5 [4, 15]: 95.0% | Stability in plasma, 4°C 24 hrs [4, 15]: 101% | Stability in plasma, -80°C 224 days [4, 15]: 109% | Stability, Precipitated 4hrs in RT [4, 16]: 90.9% | Stability in plasma, F/T cycle 3 [4, 16]: 97.9% | Stability in plasma, F/T cycle 5 [4, 16]: 95.5% | Stability in plasma, 4°C 24 hrs [4, 16]: 104% | Stability in plasma, -80°C 224 days [4, 16]: 92.8% | Stability, Precipitated 4hrs in RT [4, 17]: 91.4% | Stability in plasma, RT 24 hrs ([4]; QC3, 155 µg/ml, Li-heparin plasma, vs average of four precision and accuracy batches for this anticoagulant): 101% | Stability in plasma, F/T cycle 3 [4, 17]: 96.1% | Stability in plasma, F/T cycle 5 [4, 17]: 94.2% | Stability in plasma, 4°C 24 hrs [4, 17]: 108% | Stability in plasma, -80°C 224 days [4, 17]: 98.8% | Stability, Precipitated 4hrs in RT [4, 18]: 88.8% | Stability in plasma, F/T cycle 3 [4, 18]: 90.4% | Stability in plasma, F/T cycle 5 [4, 18]: 88.5% | Stability, Precipitated 4hrs in RT [4, 19]: 88.2% | Stability in plasma, F/T cycle 3 [4, 19]: 97.5% | Stability in plasma, F/T cycle 5 [4, 19]: 93.7% | Stability in plasma, 4°C 24 hrs [4, 19]: 106% | Stability in plasma, -80°C 224 days [4, 19]: 94.5% | Stability of protein precipitated samples ([4]; ambient temperature (about 23°C) for 4 h prior to transfer to Phree plate): good stability | Freeze-thaw stability in plasma ([4]; five cycles, QC samples in all anticoagulants, including plasma with moderate haemolysis): good stability | Short-term stability in plasma ([4]; up to 24 h at ambient temperature (about 23°C) and 4°C in all anticoagulants, CPD plasma up to 48 h): confirmed | Stock solution stability ([5]; +4°C for 5 days): above 98% | Stock solution stability ([5]; -80°C for 5 days): above 98% | Stock solution stability ([5]; workbench +24°C for 8 hrs): above 98% | Working solution stability ([5]; -80°C for 5 days): about 98% | Working solution stability ([5]; workbench +24°C for 5 hrs): about 98% | Degradation ([6]; 10 mM ammonium formate containing 2% formic acid (pH about 2), dark, 48 hrs): 95% | Remaining of initial concentration ([6]; ammonium formate 10 mM with 2% formic acid (pH about 2), 2 days (48 hrs)): 5% | Remaining of initial concentration ([6]; ammonium formate 10 mM with 2% formic acid (pH about 2), 3 days): less than 1% | Remaining of initial concentration ([6]; dilutions in solutions with neutral pH, 2 and 3 days): 95–100%
